Measurements from US6028188A (priority 1994, dated 2000).
[mp] = methylphosphonate linkage

Experiments:
[1] = system: complementary RNA targets; assay: Tm with complementary RNA target, oligomers 5'-TAG-CTT-CCT-TAG-CTC-CTG-3'; format: binding; conditions: Table XI
Protocol: (§1) Annealing reaction mixtures contained equimolar amounts of Oligomer and RNA target Oligomer (2.4 μM total strand concentration), 20 mM potassium phosphate (pH 7.2), 100 mM sodium chloride, 0.1 mM EDTA and 0.03% potassium sarkosylate. The reaction mixtures were heated to 80° C. and then slowly cooled to 4° C. over about 4 to 6 hours. The annealed samples were then transferred to 1 cm quartz cuvettes and Tm was monitored by absorbance at 260 nm as a function of temperature using a Varian Cary Model 2E Spectrophotometer containing a temperature controlled 6×6 sample holder which interfaced with an IBM compatible PC computer. The temperature was varied from 5° C. to 80° C. at a ramp rate of 1° C./minute. The Tm for each melt profile is determined as the point corresponding to the maximum of the first derivative of the curve corresponding to absorbance versus temperature.
The oligomers were synthesized according to methods set forth in the Examples herein and had mixed oligonucleoside sequences complementary to biologically relevant mRNA targets. Tm determinations were done according to the methods described in the proceeding Examples.

[2] = system: splice acceptor site; assay: Tm of splice acceptor site oligomers; format: binding; conditions: Table XIII
Protocol: as §1
The results are given as percent gene expression relative to no-oligomer treatment of cells. The concentration is given above the data columns in micromolar. CAT levels were determined in triplicate as previously given and the experiment has been repeated multiple times. The Tm of the oligomers was determined as previously given.

[3] = system: pG1036 (wild-type CAT); assay: CAT expression, non-splicing reporter pG1036, in COS-7 cells; conditions: for inhibition of expression of non-splicing CAT gene (in words): pG1036
[4] = system: pGL2 (luciferase); format: cell-based; conditions: for percent gene expression relative to no-oligomer treatment, pGL2 (splicing, no match): 1.0 μM; for inhibition of luciferase expression (in words): pGL2
Protocol: All cultures were maintained at 37° C.
This assay was performed generally as follows according to standard procedures. 20 μl of lysate was combined with 100 μl of luciferase assay reagent (Promega) and counted in a scintillation counter (Packard) within 20 seconds (as recommended by Promega).
In order to determine that the effect against pG1035 was not due to non-specific interference of splicing in general, pGL2 was used as an additional control. pGL2 encodes the luciferase gene and contains an intron that is unrelated to the intron in pG1035.

[5] = system: pG1035 (SplicerCAT); assay: Inhibition of CAT expression, splicing reporter pG1035, in COS-7 cells; conditions: for reduction of CAT expression: pG1035, 1.0 micromolar

| Substance | Tm(° C. RNA) [1] [°C] | Tm [2] [°C] | percent gene expression relative to no-oligomer treatment, pG1036 (non-splicing) ([3]; 0.1 μM) [%] | percent gene expression relative to no-oligomer treatment, pG1036 (non-splicing) ([3]; 0.3 μM) [%] | percent gene expression relative to no-oligomer treatment, pG1036 (non-splicing) ([3]; 1.0 μM) [%] | inhibition of expression of non-splicing CAT gene (in words) [3] | percent gene expression relative to no-oligomer treatment, pGL2 (splicing, no match) [4] [%] | inhibition of luciferase expression (in words) [4] | percent gene expression relative to no-oligomer treatment, pG1035 (splicing) ([5]; 0.1 μM) [%] | percent gene expression relative to no-oligomer treatment, pG1035 (splicing) ([5]; 0.3 μM) [%] | percent gene expression relative to no-oligomer treatment, pG1035 (splicing) ([5]; head printed 0.1) [%] | reduction of CAT expression [5] [%] |
| --- | --- | --- | --- | --- | --- | --- | --- | --- | --- | --- | --- | --- |
| 1630-1: 5'-TAG-CTT-CCT-TAG-CTC-CTG-3' [SEQ. ID. NO. 5], Racemic MP (DNA TAGCTTCCTTAGCTCCTG; all [mp], sugars by position and methylation of C not given here) [Oligomer 1630-1] | 39.0 | – | – | – | – | – | – | – | – | – | – | – |
| 3373-1A: 24 mer, 2'-O-Me (MP(Rp)/DE), 5'-ccc tga gag aga gag aga ggt tcg [SEQ. ID. NO. 12] (CCCTGAGAGAGAGAGAGAGGTTCG; all 2'-O-methyl, backbone, methylation of C and T or U not given here; Rp methylphosphonate and diester linkages) [Oligomer 3373-1A] | – | 84 | 91 | 89 | 105 | Neither oligomer inhibited the expression of the non-splicing CAT gene, pG1036, significantly | 127 | not inhibited in any way | 81 | 48 | 26 | 74 |
| 3373-1B: 18 mer 2'-O-Me (MP(Rp)/DE), 5'-gag aga gag aga ggt tcg-3' [SEQ. ID. NO. 13] (GAGAGAGAGAGAGGTTCG; all 2'-O-methyl, backbone, methylation of C and T or U not given here; Rp methylphosphonate and diester linkages) [Oligomer 3373-1B] | – | 80 | 95 | 85 | 81 | Neither oligomer inhibited the expression of the non-splicing CAT gene, pG1036, significantly | 127 | not inhibited in any way | 59 | 31 | 10 | 90 |
